Measurements as given in patent US10960078B2 (priority 2013, dated 2021).

How the values were obtained:
[1] = tested on: MCF-7 tumor; format: in vivo, Balb/c female nude mice; conditions: for tumor inhibitory rate (TIR): from tumor weight versus PBS group, 24 days
Description: Tumor volume and body weight of tumor-bearing mice were monitored every 3 days within 24 days. […] The tumor inhibitory rate (TIR) was calculated from tumor weight.
Study protocols involving animals were approved by the Animal Ethics Committee of Shanghai Jiao Tong University School of Medicine. SD rats (˜200 g) and 72 Balb/c female nude mice (4 weeks of age) were supplied by Chinese Academy of Sciences (Shanghai). The female nude mice were injected subcutaneously in the right flank region with 200 μL of cell suspension containing 4×10^6 MCF-7 cells. The tumors were allowed to grow to ˜200 mm^3 before experimentation.
Each mouse of different group was earmarked and followed individually throughout the whole experiments. The length and width of the tumor and the body weight of mice were measured before every injection by the end of experiment. Tumor volume (V) was calculated using the formula: V (mm^3)=½×length (mm)×width (mm)^2. After 24 days postinjection, mice were sacrificed, and tumors were separated, weighted and photographed. In addition, the tumors were cut into small pieces, fixed in 10% formalin and embedded in paraffin. Then the tissues embedded in paraffin were sectioned for histopathological analysis with H&E staining.

[2] = tested on: caspase-3; assay: Western blot analysis of caspase-3 expression; format: cell-based, human; conditions: MCF-7 cells, 30 μM, 24 h
Description: The untreated MCF-7 cells were used as a negative control.
MCF-7 cells were seeded in 6-well plates at a density of 5.0×10^5 cells per well in 2 mL of complete DMEM and allowed to attach for 24 h. […] MCF-7 cells untreated were used as a negative control. After treatment for 24 h, the MCF-7 cells were harvested. The cellular proteins were extracted in Laemmli buffer and the protein content in the extracts was quantified using a bicinchoninic acid (BCA) protein assay kit (Pierce, USA). Equal amounts of proteins (30 μg lane^−1) were separated on sodium dodecyl sulfate-polyacrylamide gels (SDS-PAGE) and electrotransferred to 0.22 μm polyvinylidene fluoride (PVDF) membranes. The membranes were then blocked with 5% non-fat dry milk in TBST (Tris buffered saline supplemented with 0.05% Tween-20) and probed with antibodies against β-actin (1:1,000 dilution), caspase-3 (1:1,000 dilution) followed by HRP-conjugated (HRP: horseradish peroxidase) anti-rabbit immunoglobulin-G (IgG, 1:5,000 dilution). β-Actin was used as the loading control. Protein bands were detected using Chemiluminescent HRP Substrate (Themo Scientific, USA) according to the manufacture's protocol and analyzed using the ChemiDoc™ MP Imaging System (Bio-Rad, USA).

[3] = tested on: MCF-7 cells; format: cell-based, human; conditions: 30 μM, 24 h
Description: The untreated cells were used as control.
MCF-7 cells were seeded in 6-well plates at 5.0×10^5 cells per well in 2 mL of complete DMEM and cultured for 24 h. […] MCF-7 cells without the treatment were used as a control. […] For cell cycle determination, treated cells were collected, washed for twice with ice-cold PBS, fixed with 70% ethanol at 4° C. overnight and treated with Rnase A for 45 min at 37° C., followed by PI staining for 30 min in the dark.

[4] = In vivo biodistribution in MCF-7 tumor-bearing mice; set-up: species or system Balb/c female nude mice; conditions: MCF-7 tumor-bearing nude mice, i.v.; Cb 3.5, Ir 6.7, Ir-Cb nanoparticles 10 mg kg^−1
Description: Furthermore, to examine the amount of Ir-Cb ADDC in the tumors and other organs, the MCF-7 tumor-bearing mice were sacrificed after intravenous injection with different time intervals. The tumor-bearing mice treated with free Cb and Ir were used as controls. […] After injection for 6 h, the content of Ir-Cb ADDC obviously decreases in kidney, spleen and lung, whereas the downward trend in tumor and liver is slower (FIG. 13b). […] After 6 h, the Ir concentration in spleen and lung decreases quickly.
The biodistribution of Cb, Ir and Ir-Cb nanoparticles was analyzed in Balb/c female nude mice bearing MCF-7 tumors. The MCF-7 tumor-bearing mice were intravenously injected via tail vein with Cb, Ir and Ir-Cb nanoparticles at a dose of Cb (3.5 mg kg^−1), Ir (6.7 mg kg^−1) and Ir-Cb nanoparticles (10 mg kg^−1). Mice were sacrificed by cervical vertebra dislocation at 30 min, 1 h and 6 h after drug administration (n=3 at each time point), and the heart, liver, spleen, lung, kidney and tumor were collected. Tissue samples were rinsed in saline, blotted using paper towel, weighed and stored at −80° C. before being homogenized. Cb, Ir and Ir-Cb were extracted from the homogenate using 2 mL of dichloromethane and methanol (4:1, v/v). The organic phases were collected and dried, and the samples were dissolved in acetonitrile for analysis.

[5] = Pharmacokinetic study (blood retention) after i.v. injection; conditions: rats, 8 mg kg^−1, 12 h
Description: The blood samples (0.5 mL) were taken from the eye socket at the 5 min, 15 min, 30 min, 1 h, 2 h, 4 h, 6 h, 8 h, and 12 h time points after injection. The plasma was obtained by centrifugation at 3,000 rpm for 10 min and stored at −20° C. A 200 μL of plasma was treated two times with 250 μL of acetonitrile and methanol mixture (1:1 v/v). The solvent solutions separated by centrifugation were pooled.

[6] = tested on: MCF-7 cells; assay: In vitro cytotoxicity by MTT assay, MCF-7 cells
Description: The cells without any treatment were used as the control.
The cells were seeded into 96-well plates at 1×10^4 cells per well in 200 μL of culture medium. […] The cells without the treatment were used as control. The cells were grown for another 72 h. Then, 20 μL of 5 mg mL^−1 MTT assay stock solution in PBS was added to each well. After the cells were incubated for 4 h, the medium containing unreacted MTT was carefully removed. Then, the obtained blue formazan crystals were dissolved in 200 μL well^−1 DMSO, and the absorbance was measured in a BioTek Synergy H4 hybrid reader at a wavelength of 490 nm. The blank was subtracted to the measured optical density (OD) values, and the cell viability was expressed as % of the values obtained for the untreated control cells.

[7] = tested on: MCF-7 cells; assay: Cell cycle assay (PI staining, flow cytometry); format: cell-based, human; conditions: 30 μM, 24 h
Description: MCF-7 cells were seeded in 6-well plates at 5.0×10^5 cells per well in 2 mL of complete DMEM and cultured for 24 h. […] MCF-7 cells without the treatment were used as a control. For quantitative measurement of apoptosis, treated cells were harvested and washed twice with ice-cold PBS, stained with Alexa Fluor® 488 annexin V and PI according to the manufacturer's instructions. For cell cycle determination, treated cells were collected, washed for twice with ice-cold PBS, fixed with 70% ethanol at 4° C. overnight and treated with Rnase A for 45 min at 37° C., followed by PI staining for 30 min in the dark. Both cell apoptosis and cycle were analyzed by flow cytometry (BD FACSCalibur, USA), and […] per sample were counted.

[8] = tested on: MCF-7 tumor; assay: Immunohistochemical analysis of tumor tissues (H&E, PCNA); format: in vivo, Balb/c female nude mice; conditions: MCF-7 tumors after treatment
Description: 3 days after the last injection, mice were sacrificed and tumor tissues were excised. The tissues were fixed in 10% formalin and embedded in paraffin. The paraffin-embedded 5 μm tumor sections were analyzed by immunohistochemical analysis for PCNA expression. To analyze the PCNA, endogenous peroxidase activity was inhibited by 3% hydrogen peroxide aqueous solution for 10 min, and the sections were heated to boiling in 0.01 M sodium citrate buffer (pH 6.0) for 10 min in the microwave oven for antigen retrieval and repeated boiling process for once. Subsequently, the sections were allowed to cool in the same buffer, rinsed twice with PBS for 5 min and then incubated with PCNA antibody (Boster, China, 1:200) for 30 min at room temperature and then at 4° C. overnight. After washing, sections were incubated with biotinylated secondary antibodies for 20 min at 37° C. Finally, a streptavidin-biotin complex was applied and the immunoreactivity was visualized with diaminobenzidine as a chromogen. The sections were imaged by using Olympus Fluorescence Microscope (Olympus BX61). […]
Each mouse of different group was earmarked and followed individually throughout the whole experiments. The length and width of the tumor and the body weight of mice were measured before every injection by the end of experiment. Tumor volume (V) was calculated using the formula: V (mm^3)=½×length (mm)×width (mm)^2. […]

[9] = Self-assembly of Ir-Cb ADDC in water: size and morphology by DLS and TEM; format: physicochemical
Description: The inherent amphiphilicity of the Ir-Cb ADDC provides an opportunity for itself to self-assemble into nanoparticles in water. To determine the size and morphology of the self-assembled nanoparticles, a dimethylsulfoxide (DMSO) solution of the Ir-Cb ADDC was added dropwise into water, followed by dialysis against water to remove DMSO. A stable and bluish solution with the final Ir-Cb conjugate concentration of 0.5 mg mL^−1 was obtained. FIG. 7a gives the dynamic light scattering (DLS) curve of Ir-Cb ADDC aqueous solution with a concentration of 0.5 mg mL^−1, indicating the formation of aggregates with a narrow unimodal distribution and an average hydrodynamic diameter of approximate 88.3 nm. The morphology of the aggregates was observed by transmission electron microscopy (TEM). […] This size is slightly smaller than that measured by DLS due to the shrinkage of nanoparticles in a drying state during TEM sample preparation. […]
^1H and ^13C nuclear magnetic resonance (^1H NMR and ^13C NMR) spectra were recorded using a Varian Mercury Plus 400 MHz spectrometer. Fourier transform infrared (FTIR) spectra were recorded on a Paragon 1,000 instrument by KBr sample holder method. […] All samples were measured at a scattering angle of 90°. […] Ultraviolet-visible (UV-Vis) absorption of the sample solutions was measured at room temperature by using a Thermo Electron-EV300 UV-Vis spectrophotometer. […]

[10] = Critical aggregation concentration (CAC) measurement with pyrene fluorescent probe; format: physicochemical; conditions: in water, pyrene I3/I1
Description: To investigate the self-assembly behavior of Ir-Cb ADDC in water, the critical aggregation concentration (CAC) was measured by using pyrene as a fluorescent probe. I1 and I3 are the emission intensities of the first and third bands in the fluorescence spectrum of pyrene respectively, which are labeled as 1 and 3 in the inset of FIG. 7c. The emission intensity ratio of I3/I1 is very sensitive to the polarity of the medium surrounding pyrene molecules. (Kwon, et al. 1993 Langmuir 9, 945-949.) The higher polarity of the medium, the lower the intensity ratio is. The relationship of the I3/I1 ratio with the Ir-Cb ADDC concentration is present in FIG. 7c. At low Ir-Cb ADDC concentration, the I3/I1 value remains nearly unchanged, indicating the characteristics of pyrene in water environment. With increasing Ir-Cb ADDC concentration, the ratio of I3/I1 starts to increase dramatically and reaches the characteristic level of pyrene in hydrophobic environment at a certain Ir-Cb ADDC concentration. According to the inflexion of the curve, the CAC value of the Ir-Cb ADDC is about 7 μg mL^−1.
To determine the CAC value of the Ir-Cb ADDC, pyrene was used as the fluorescence probe. […] The fluorescence emission spectra of all samples were recorded on a LS-50B luminescence spectrometer (Perkin Elmer Co.) at 335 nm excitation wavelength and 8 nm slit width. The I3/I1 values of all solution were recorded.

[11] = tested on: MCF-7/ADR cells; assay: Accumulation and efflux assay in MCF-7 and MCF-7/ADR cells (flow cytometry); format: cell-based, human; conditions: 30 μM, 1-4 h incubation
Description: The fluorescent intensity was calculated by CellQuest software, and blanked by untreated cells.

[12] = In vitro drug release by dialysis in buffered solutions; conditions: pH 5.0, 37° C.

With `O=C(O)CCCc1ccc(N(CCCl)CCCl)cc1` [Cb, chlorambucil] as the molecule, how does the “tumor volume compared with the PBS group” value ([1]; after 24 days treatment, i.v. once every 3 days) read?
Its value is 91.60±2.09%.

What about the “tumor inhibitory rate (TIR)” value [1] of the same molecule?
The value was 9.3±2.10%.

What about the “caspase-3 protein expression versus untreated control” value [2] of the same molecule?
The value was “up-regulated slightly”.

And the “ratio of apoptosis cells” value [3]?
Its value is 18.02%.

What about the tissue distribution [4] of the same molecule?
The tissue distribution was “largely accumulates in liver, followed by spleen, lung, heart and kidney”.

And the “plasma concentration after 12 h relative to Ir-Cb ADDC” value [5]?
The value was “one twenty-fifth”.

For `CCc1c2c(nc3ccc(OC(=O)N4CCC(N5CCCCC5)CC4)cc13)-c1cc3c(c(=O)n1C2)COC(=O)[C@]3(O)CC` [Ir, irinotecan], which “tumor inhibitory rate (TIR)” value [1] is on record?
Its value is 42.3±6.63%.

What about the IC50 ([6]; Homo sapiens, MCF7, 72 h) of the same molecule?
The IC50 was about 5 µM.

What about the “cytotoxicity compared with free Cb” value ([6]; MCF-7 cells) of the same molecule?
The value was “much higher than that of free Cb”.

What about the “caspase-3 protein expression versus untreated control” value [2] of the same molecule?
Its value is “up-regulated slightly”.

What about the tissue distribution [4] of the same molecule?
Its tissue distribution is “mainly accumulates in liver, followed by spleen, lung, kidney and heart up to 2 h”.

What about the “percentage of G0/G1 phase” value [7] of the same molecule?
The value was 34.25%.

What about the “percentage of G2/M” value [7] of the same molecule?
Its value is 27.81%.

And the “percentage of S” value [7]?
The value was 37.93%.

What does the source list for `CCc1c2c(nc3ccc(OC(=O)N4CCC(N5CCCCC5)CC4)cc13)-c1cc3c(c(=O)n1C2)COC(=O)[C@@]3(CC)OC(=O)CCCc1ccc(N(CCCl)CCCl)cc1` [Ir-Cb ADDC]?
anticancer efficiency compared with free Ir and Ir/Cb mixture ([6]; MCF-7 cells, concentration higher than the CAC value): much better anticancer efficiency than free Ir and Ir/Cb mixture; antitumor activity compared with free Ir and Ir/Cb mixture ([6]; MCF-7 cells, drug concentration lower than the CAC value): worse than that of free Ir and Ir/Cb mixture; H&E histology of tumor tissue [8]: large necrotic area is observed; average hydrodynamic diameter (Dh) by DLS ([9]; aqueous solution 0.5 mg mL^−1): ~88.3 nm; average size of spherical nanoparticles by TEM ([9]; dried state): ~75.7 nm; critical aggregation concentration (CAC) [10]: about 7 μg mL^−1; tissue distribution [4]: accumulate in liver, spleen, kidney, lung and tumor at first 2 h; accumulation in MCF-7/ADR cells compared with that in MCF-7 cells [11]: about ½; Ir release / hydrolysis at pH 5.0 [12]: hydrolysis of Ir-Cb ADDC is accelerated
